Like-named read-outs stand apart in the source and are kept apart here.
How the values were obtained:
[1] = test system: patients with moderate to severe RLS/PMLS; details: pramipexole 0.35 mg once daily evening dose for 21 days
Description: (§3) Due to remaining RLS complaints iron sucrose therapy in the dosage 500 mg i.v. twice, was introduced during one week (FIG. 1; C).

[2] = test system: patients with moderate to severe RLS/PMLS; experiment: IRLSS score in two patients with RLS/PLMS, Example 1; assay type: in vivo
Text: (§1) RLS and PLMS are typically diagnosed by patient history and standardized questionnaires as well as by polysomnographic evaluation.

[3] = test system: patients with moderate to severe RLS/PMLS; details: both patients; pramipexole 0.35 mg once daily for 21 days
Description: as §3

[4] = test system: patient with clinical symptoms of RLS; experiment: IRLSS score in a third patient with RLS, Example 2; assay type: in vivo; details: iron dextran, after discontinuation of dopaminergic treatment (FIG. 2; E)
Description: as §1
(§2) A subsequent clinical observational study included a patient with clinical symptoms of RLS and an IRLSS score of 26 on the diagnostic evaluation under treatment with L-dopa (levodopa) and carbidopa (Sinernet®, fixed combination dosage of 100 mg L-dopa and 25 mg carbidopa) (FIG. 2; A). The patient needed to be treated with altogether three tablets per evening in order to obtain acceptable symptom relief (IRLSS score 4. FIG. 2; B). […] An attempt to discontinue dopaminergic treatment altogether failed. Following this discontinuation there was a substantial symptom relapse (IRLSS score 15. FIG. 2; E).

[5] = test system: patient with clinical symptoms of RLS; experiment: Side effects and augmentation in a third patient with RLS, Example 2; assay type: in vivo; details: iron dextran 200 mg daily
Description: as §2

CCCN[C@H]1CCc2nc(N)sc2C1 [Pramipexole]
PLMI ([1]; patient with baseline PLMI 3): 0 | PLMI ([1]; patient with baseline PLMI 17): 2 | IRLSS score ([2]; patient with baseline IRLSS 28, pramipexole 0.35 mg once daily, day 21 (FIG. 1; B)): 17 | IRLSS score ([2]; patient with baseline IRLSS 30, pramipexole 0.35 mg once daily, day 21 (FIG. 1; B)): 15 | side effects [3]: No side effects were reported

iron dextran
IRLSS score [4]: 15 | adverse effects [5]: did not cause any adverse effects

iron sucrose
IRLSS score ([2]; patient with baseline IRLSS 28, after iron sucrose infusions, pramipexole discontinued for one week (FIG. 1; D)): 18 | IRLSS score ([2]; patient with baseline IRLSS 30, after iron sucrose infusions, pramipexole discontinued for one week (FIG. 1; D)): 14

Reference: patent US20090304816A1, “METHOD AND COMPOSITION FOR TREATING AND DIAGNOSING RESTLESS LEGS SYNDROME” (CEREUSCIENCE AB, priority 2005, published 2009)
